Like-named read-outs stand apart in the source and are kept apart here. No end group written: not given here.
Assay: Solubility study of P144
Type: physicochemical

TSLDASIIWAMMQN [Formula P144, TSLDASIIWAMMQN]
Solubility (Dicloromethane (DCM)): insoluble
Solubility (Dimethyl sulfoxide (DMSO)): very soluble
Solubility (Dimethylformamide (DMF)): insoluble
Solubility (Ethanol): insoluble
Solubility (Gantrez ® S97 2-5%): insoluble
Solubility (Glycerol): insoluble
Solubility (Hexane): insoluble
Solubility (Human albumin 20%, read-out: Solubility): 0.25 mg/mL
Solubility (Hydroxy-propyl-β-cyclodextrin 5%, read-out: Solubility): 0.25 mg/mL
Solubility (PEG 400): insoluble
Solubility (PLASDONE 5%): insoluble
Solubility (Pluronic F68 (1-10%)): insoluble
Solubility (Proplylene glycol): insoluble
Solubility (Sodium deoxycholate 5%): insoluble
Solubility (Tetrahydrofurane (THF)): insoluble
Solubility (Urea 10%, read-out: Solubility): 0.25 mg/mL
Solubility (distilled water): insoluble

Reference: patent US20110294734A1, “PHARMACEUTICAL COMPOSITIONS COMPRISING TGF-BETA 1 INHIBITOR PEPTIDES” (DIGNA BIOTECH, S.L., priority 2009, published 2011)
